Data taken from patent US20240309015A1, “Methods for the Treatment of Fibrotic Disease” (SHY Therapeutics, LLC, priority 2021, published 2024).

Columns and labels:
TNFα = test: Mouse TNF Alpha Quantification Assay (LPS-stimulated RAW 264.7); assay type: cell-based; parameters: dose or concentration left out as unconfirmed; conditions: RAW264.7, ELISA, read-out: TNFα: % inh.
Rho-A = test: Ras GTP Binding Domain Inhibition Assay, Rho-A; conditions: at 20 μM; without SOS
Description: (§1) A Ras Superfamily Activity Assay (as disclosed in International Application No. PCT/US2018/038613, filed Jun. 20, 2018, which is incorporated by reference in its entirety) was used as a specific assay to evaluate compounds against the following for the following Ras Superfamily proteins: KRas wild type, KRas Q61H mutant, KRas G12C mutant, KRas G12D mutant, Rac-1, and Rho-A.
(§2) Buffer-I: • 25 mM Tris-HCl, pH 7.4 • 27 mM KCl • 137 mM NaCl • 1 mM MgCl2 • 1 mM DTT
(§3) Buffer-IL: • 50 mM Tris-HCl, pH 7.0 • 1 mM MgCl2 • 1 mM DTT
(§4) The small GTPases proteins: KRas wild type. KRas Q61H mutant, KRas G12C mutant, KRas G12D mutants, Rac-1, and Rho-A were expressed as His-tagged proteins. In addition, the Guanosine nucleotide Exchange Factor (GEF) Sos protein (residues 556-1049) was expressed as a His-tagged protein. In cells, the guanine nucleotide exchange factor Sos protein promotes activation of Ras proteins by stimulating an exchange of GDP for GTP. The inclusion of Sos to the Ras GTP binding domain inhibition assay may be considered as an alternative representation of physiological cellular conditions for evaluating the inhibitory activity of some of the tested small molecules.
(§5) For the assay, all purified small GTPases proteins were diluted in Buffer-I or Buffer-II to a final concentration of 10-30 μg/mL. 200 μL of each diluted protein was added to a nickel-coated 96-well plate and incubated overnight at 4° C. Then the protein solution was discarded and 200 μL of Buffer-I or Buffer-II was added to each well in the presence of 1% DMSO. Compounds to be tested were added to the protein-coated wells at final concentration of 20 μM, and incubated for 3 hours at room temperature with and without 10-30 μg/mL of Sos added to the final hour of the incubation. When performing IC50 measurements a serial dilution of all tested concentrations was added. Then Cy3-GTP or Cy5-GTP was added to each well to a final concentration of 100 nM. The labeled GTP was incubated for 45 minutes at room temperature. Following GTP incubation, wells were washed 3× in Buffer-I or Buffer-II and 200 μL of Buffer-I or Buffer-II was added to each well. Following washes, the amount of bound labeled-GTP was measured using a SpectraMax M3 (Molecular Devices).

KRas G12C mutant = test: Ras GTP Binding Domain Inhibition Assay, KRas G12C mutant; conditions: at 20 μM; for KRas G12C mutant + SOS: % inh.: with SOS; for KRas G12C mutant: % inh.: without SOS
Description: as §1, §2, §3, §4, §5

KRas G12D mutant = test: Ras GTP Binding Domain Inhibition Assay, KRas G12D mutant; conditions: at 20 μM; for KRas G12D mutant + SOS: % inh.: with SOS; for KRas G12D mutant: % inh.: without SOS
Description: as §1, §2, §3, §4, §5

KRas wild type = test: Ras GTP Binding Domain Inhibition Assay, KRas wild type; conditions: at 20 μM; for KRas wild type + SOS: % inh.: with SOS; for KRas wild type: % inh.: without SOS
Description: as §1, §2, §3, §4, §5

IL-6 = test: Mouse IL6 Quantification Assay (LPS-stimulated RAW 264.7); assay type: cell-based; parameters: dose or concentration left out as unconfirmed; conditions: RAW264.7, ELISA, read-out: IL-6: % inh.

Row | SMILES | Rho-A: % inh. (Rho-A) | KRas G12C mutant + SOS: % inh. (KRas G12C mutant) | KRas G12C mutant: % inh. (KRas G12C mutant) | KRas G12D mutant + SOS: % inh. (KRas G12D mutant; Table 7) | KRas G12D mutant + SOS: % inh. (KRas G12D mutant; Table 8) | KRas G12D mutant: % inh. (KRas G12D mutant; Table 7) | KRas G12D mutant: % inh. (KRas G12D mutant; Table 8) | KRas wild type + SOS: % inh. (KRas wild type) | KRas wild type: % inh. (KRas wild type) | inhibition (TNFα) | inhibition (IL-6)
1 | CO[C@H]1C[C@H](CNc2nc(-c3nccn3C)nc3sc(-c4ccn(C(C)C)n4)c(C)c23)C1 [Compound 16, 6-(1-Isopropyl-1H-pyrazol-3-yl)-N-(((1r,3r)-3-methoxycyclobutyl)methyl)-5-methyl-2-(1-methyl-1H-imidazol-2-yl)thieno[2,3-d]pyrimidin-4-amine] | C (C = 46-75% inhibition) | C (C = 46-75% inhibition) | C (C = 46-75% inhibition) | C (C = 46-75% inhibition) | C (C = 46-75% inhibition) | B (B = 26-45% inhibition) | B (B = 26-45% inhibition) | C (C = 46-75% inhibition) | D (D = 76-100% inhibition) | 1 to 25% | 46 to 75%
2 | COCC1(OC)CCN(c2nc(-c3nccn3C)nc3sc(-c4ccn(C(C)C)n4)c(C)c23)C1 (racemic) [Compound 27, rac-6-(1-Isopropyl-1H-pyrazol-3-yl)-4-(3-methoxy-3-(methoxymethyl)pyrrolidin-1-yl)-5-methyl-2-(1-methyl-1H-imidazol-2-yl)thieno[2,3-d]pyrimidine] | C (C = 46-75% inhibition) | D (D = 76-100% inhibition) | D (D = 76-100% inhibition) | D (D = 76-100% inhibition) | D (D = 76-100% inhibition) | C (C = 46-75% inhibition) | C (C = 46-75% inhibition) | D (D = 76-100% inhibition) | D (D = 76-100% inhibition) | 76 to 100% | 76 to 100%
3 | COc1cccc(Nc2nc(-c3nccn3C)nc3sc(-c4ccn(C(C)C)n4)c(C)c23)n1 [Compound 18, 6-(1-Isopropyl-1H-pyrazol-3-yl)-N-(6-methoxypyridin-2-yl)-5-methyl-2-(1-methyl-1H-imidazol-2-yl)thieno[2,3-d]pyrimidin-4-amine] | D (D = 76-100% inhibition) | C (C = 46-75% inhibition) | C (C = 46-75% inhibition) | C (C = 46-75% inhibition) | C (C = 46-75% inhibition) | D (D = 76-100% inhibition) | D (D = 76-100% inhibition) | C (C = 46-75% inhibition) | C (C = 46-75% inhibition) | 0% | 26 to 45%
4 | COCC1CN(c2nc(-c3nccn3C)nc3sc(-c4ccn(C(C)C)n4)c(C)c23)CCO1 (racemic) [Compound 15, rac-4-(6-(1-Isopropyl-1H-pyrazol-3-yl)-5-methyl-2-(1-methyl-1H-imidazol-2-yl)thieno[2,3-d]pyrimidin-4-yl)-2-(methoxymethyl)morpholine] | D (D = 76-100% inhibition) | D (D = 76-100% inhibition) | C (C = 46-75% inhibition) | D (D = 76-100% inhibition) | D (D = 76-100% inhibition) | D (D = 76-100% inhibition) | D (D = 76-100% inhibition) | D (D = 76-100% inhibition) | D (D = 76-100% inhibition) | 76 to 100% | 46 to 75%

More lines, main results first:

Row | Rho-A: % inh. (Rho-A) | KRas G12C mutant + SOS: % inh. (KRas G12C mutant) | KRas G12C mutant: % inh. (KRas G12C mutant) | KRas G12D mutant + SOS: % inh. (KRas G12D mutant; Table 7) | KRas G12D mutant + SOS: % inh. (KRas G12D mutant; Table 8) | KRas G12D mutant: % inh. (KRas G12D mutant; Table 7) | KRas G12D mutant: % inh. (KRas G12D mutant; Table 8) | KRas wild type + SOS: % inh. (KRas wild type) | KRas wild type: % inh. (KRas wild type) | SMILES | inhibition (TNFα) | inhibition (IL-6)
5 | C (C = 46-75% inhibition) | D (D = 76-100% inhibition) | D (D = 76-100% inhibition) | D (D = 76-100% inhibition) | D (D = 76-100% inhibition) | C (C = 46-75% inhibition) | C (C = 46-75% inhibition) | D (D = 76-100% inhibition) | D (D = 76-100% inhibition) | COCCn1ccc(-c2sc3nc(-c4nccn4C)nc(N[C@@H]4CC[C@H](OC)C4)c3c2C)n1 (racemic) [Compound 39, rac-N-((1R,3S)-3-Methoxycyclopentyl)-6-(1-(2-methoxyethyl)-1H-pyrazol-3-yl)-5-methyl-2-(1-methyl-1H-imidazol-2-yl)thieno[2,3-d]pyrimidin-4-amine] | 0% | 26 to 45%
6 | C (C = 46-75% inhibition) | D (D = 76-100% inhibition) | C (C = 46-75% inhibition) | D (D = 76-100% inhibition) | D (D = 76-100% inhibition) | B (B = 26-45% inhibition) | B (B = 26-45% inhibition) | D (D = 76-100% inhibition) | D (D = 76-100% inhibition) | COc1cccc(-c2sc3nc(-c4nccn4C)nc(N[C@H]4C[C@H](OC)C4)c3c2C)c1F [Compound 42, 6-(2-Fluoro-3-methoxyphenyl)-N-((1r,3r)-3-methoxycyclobutyl)-5-methyl-2-(1-methyl-1H-imidazol-2-yl)thieno[2,3-d]pyrimidin-4-amine] | 0% | 46 to 75%
